From patent US12012415B2, “Compositions and methods for the diagnosis, treatment and prevention of neoplastic and neurological disorders” (AscentGene, Inc., priority 2018, dated 2024)
“Also recorded” adds a separate entry of the source.

How the values were obtained:
[1] = tested on: glioma (glioblastoma cell line C6); experiment: C6 glioma xenograft model, tumor growth, behaviour and memory; format: in vivo, rats; conditions: for ability of new object recognition: rat, in vivo; for recovery of memory loss and loss of other activities: xenograft model of C6 cell line
[2] = tested on: A549 xenograft (NSCLC tumor); experiment: A549 xenograft mice, AG-1031 treatment after inoculation; format: in vivo; conditions: 20-40 μg/mice IP every other day, 28 days, after tumor formation
Procedure: Mice were treated with AG-1031 (20-40 μg/mice) every other day via IP injection after A549 inoculate to the SHO mice treatment and followed for up to 28 days.
Tumor volume was measured during treatment of NSCLC cells with AG-1031 over 28 days.

[3] = tested on: Rat glioblastoma cell lines C6; experiment: Cell growth of glioblastoma cell line C6; format: cell-based; conditions: cell growth rate from number of live cells
Procedure: (§1) Rat glioblastoma cell lines C6 (A) and human non-small cell lung cancer cell line H841 (B) were grown in the proper medium and treated with different concentration of drug candidate AG-1031 (P) and AG-1503 (#3). Cell growth rate was calculated based on the number of live cells as compared to concentration in M of selected small molecules of the invention (see FIGS. 6A and 6B).

[4] = tested on: human non-small cell lung cancer cell line H841; experiment: Cell growth of NSCLC cell lines; format: cell-based; conditions: cell growth rate from number of live cells
Procedure: as §1

PC4 protein = PC4 protein (Homo sapiens, UniProt P53999); experiment: PC4-DNA binding interference; conditions: for PC4 inhibition: high-throughput screen platform
Procedure: A number of small molecules were incubated with PC4 protein and DNA binding assessed.

[5] = tested on: A549 xenograft (NSCLC formation); experiment: A549 xenograft mice, AG-1031 pre-injection (vaccine); format: in vivo
Procedure: AG-1031 was injected into mice two weeks before injection of tumor cell (see FIG. 9).
Tumor volume was measured for 35 days after administration of AG-1031 to xenograft mice.
IP inject with AG-1031 40 μg/mice, once a week (×2) before A549 cells inoculate to the SHO mice. Assessment of AG-1031 effect on tumor growth in A549 xenograft mice.

| Substance | ability of new object recognition [1] | glioma growth ([1]; xenograft model from C6 cell line) | recovery of memory loss and loss of other activities [1] | growth of NSCLC tumor [2] | inhibition of growth of glioma cell line C6 [3] | inhibition of growth of NSCLC cell lines [4] | PC4 inhibition (PC4 protein) | interference of PC4-DNA binding (PC4 protein; small molecules incubated with PC4 protein, in vitro) | tumor volume ([5]; AG-1031 injected two weeks before tumor cells, control 302.9 mm^3) [mm^3] | tumor volumes ([5]; measured for 35 days after administration) | prevention of tumor formation ([5]; pre-injection of AG-1031 before tumor cells) | open-field anxiety and activity ([1]; rats with glioma) |
| --- | --- | --- | --- | --- | --- | --- | --- | --- | --- | --- | --- | --- |
| 9-methyl (I) and 13-methyl (II) trans-(+)-18-ethenyl-4,4a-dihydro-3,4-bis(methoxycarbonyl)4a,8,14,19-tetramethyl-23H, 25H-benzo[b]porphine-9,13-dipropanoate [AG-1031] | showed efficacy to improve ability of new object recognition | significantly inhibited glioma growth | recovery of memory loss and other activity loss | inhibits growth of NSCLC tumor cells; also recorded: inhibiting tumor growth | inhibition of rat glioblastoma cell line C6 | inhibition of human non-small cell lung cancer cell line H841; also recorded: inhibited non-small cell lung cancer (NSCLC) cell growth | strong PC4 inhibitor | significant interference of PC4-DNA binding; also recorded: specifically inhibits PC4 activity by blocking its double stranded DNA binding ability | 69.0 | substantially reduces tumor volumes | prevents NSCLC formation in vivo; also recorded: effectively prevented tumor formation | – |
| Coproporphyrin III tetramethyl ester [AG-1503] | showed efficacy to improve ability of new object recognition | – | better activity for recovering memory loss and loss of other activities | – | inhibition of rat glioblastoma cell line C6; also recorded: specific inhibitory activity on growth of glioma cell line C6 | inhibition of human non-small cell lung cancer cell line H841; also recorded: not significant inhibitory activity on growth of NSCLC cell lines | strong PC4 inhibitor | – | – | – | – | improvement of anxiety and activity |
